One assay concerns the target T1, HBV polymerase (Hepatitis B virus genotype D subtype ayw, UniProt P03156).
T1 construct: HBV virion stock (˜5×10^7 genome equivalents) concentrated from the supernatant of HepDE19 cells cultured in tetracycline-free medium; expressed in transfected cells; host or cells: HepDE19 cells (HBV-producing line, tetracycline-off); virions concentrated from the supernatant
The experiment in a line: endogenous DNA polymerase reaction (EPR). Format: biochemical. To be noted: for HBV polymerase activity: in vitro endogenous polymerase reaction, HBV virions from HepDE19 culture fluid. The protocol: Endogenous DNA polymerase reaction (EPR): The EPR was performed as previously described with modifications (Guo, H., R. Mao, T. M. Block, and J. T. Guo. 2010). Briefly, EPR mixture was assembled with 10 μl of HBV virion stock (˜5×10^7 genome equivalents) concentrated from the supernatant of HepDE19 cells cultured in tetracycline-free medium (Guo, H., D. Jiang, T. Zhou, A. Cuconati, T. M. Block, and J. T. Guo. 2007, plus 15 μl of 2×EPR buffer which consisted of 0.3 M NaCl, 0.1 M Tris-HCl (pH 8.0), 20 mM MgCl2, 2 mM dithiothreitol, 0.2% (vol/vol) Nonidet P-40, 0.2 mM each of dATP/dGTP/dTTP, and 10 μM α-^32P-dCTP. Compounds were added as indicated and water was supplemented to bring the reaction volume to 30 μl. As a positive control, 0.2 mM of dGTP in the 2×EPR buffer was replaced with 0.2 mM ddGTP. After incubation at 37° C. for 1 hours, the reaction solution was dotted on Whatman 3M filter (Millipore, Billerica, Mass.) and subjected to rinse with 10% trichloride acid for 30 min at room temperature, followed by 3 times of wash with 95% ethanol, 5 min each. The radioactivity (counts of per minute, CPM) of acid insoluble ^32P was counted with a liquid scintillation counter (PerkinElmer, Waltham, Mass.).

Another assay relates to HBV DP-rcDNA. The experiment in a line: DP-rcDNA level in HepDES19 cells (Southern blot). Particulars: for reduction of DP-rcDNA: early time point. The class given is cell-based, hepatitis B virus. The source says: Viral nucleic acid analysis: Total cellular RNA was extracted with TRIzol reagent (Invitrogen, Grand Island, N.Y.) by following manufacturer's directions. Ten microgram of total cellular RNA was resolved in 1.5% agarose gel containing 2.2 M formaldehyde and transferred onto Hybond-XL membrane (GE Healthcare, Piscataway, N.J.) in 20×SSC buffer. Intracellular hepadnaviral core DNA and cccDNA (Hirt DNA) were extracted as described previously (Guo, H., D. Jiang, T. Zhou, A. Cuconati, T. M. Block, and J. T. Guo. 2007. Guo, H., D. Jiang, T. Zhou, A. Cuconati, T. M. Block, and J. T. Guo. 2007. Guo, H., R. Mao, T. M. Block, and J. T. Guo. 2010. Guo, H., W. S. Mason, C. E. Aldrich, J. R. Saputelli, D. S. Miller, A. R. Jilbert, and J. E. Newbold. 2005). Half of the DNA samples recovered from one well of a 6-well-plate were resolved by electrophoresis into a 1.2% agarose gel and blotted onto Hybond-XL membrane. Membranes were probed with either an α-^32P-UTP (800 Ci/mmol, Perkin Elmer) labeled hepadnaviral minus (detecting DNA) or plus strand (detecting RNA) specific full-length riboprobe and exposed to a phosphorimager screen (Fuji Film, Tokyo, Japan). Hybridization signals were visualized by Typhoon FLA-7000 (GE Healthcare) and quantified with ImageQuantTL software (GE Healthcare).
Identification of compounds that inhibits cccDNA accumulation in HepDES19 cells: Compounds were tested on HepDES19 cells, which have a higher level of cccDNA production than HepDE19 cells (Guo, H., D. Jiang, T. Zhou, A. Cuconati, T. M. Block, and J. T. Guo. 2007). Briefly, after withdrawal of tetracycline, HepDES19 cells were left untreated, or were treated with compound at serial concentrations; tetracycline-free media was changed every other day with fresh compound supplementation. […] The cells were harvested at day 12, viral RNA (top panel), core DNA (middle panel), and Hirt DNA (DP-rcDNA and cccDNA) (bottom panels) were extracted and analyzed by Northern blot and Southern blot, respectively. Shorter exposure of the Hirt DNA blot was used for the quantitative determination of DP-rcDNA signals. […]

T1 sequence (P03156 whole entry): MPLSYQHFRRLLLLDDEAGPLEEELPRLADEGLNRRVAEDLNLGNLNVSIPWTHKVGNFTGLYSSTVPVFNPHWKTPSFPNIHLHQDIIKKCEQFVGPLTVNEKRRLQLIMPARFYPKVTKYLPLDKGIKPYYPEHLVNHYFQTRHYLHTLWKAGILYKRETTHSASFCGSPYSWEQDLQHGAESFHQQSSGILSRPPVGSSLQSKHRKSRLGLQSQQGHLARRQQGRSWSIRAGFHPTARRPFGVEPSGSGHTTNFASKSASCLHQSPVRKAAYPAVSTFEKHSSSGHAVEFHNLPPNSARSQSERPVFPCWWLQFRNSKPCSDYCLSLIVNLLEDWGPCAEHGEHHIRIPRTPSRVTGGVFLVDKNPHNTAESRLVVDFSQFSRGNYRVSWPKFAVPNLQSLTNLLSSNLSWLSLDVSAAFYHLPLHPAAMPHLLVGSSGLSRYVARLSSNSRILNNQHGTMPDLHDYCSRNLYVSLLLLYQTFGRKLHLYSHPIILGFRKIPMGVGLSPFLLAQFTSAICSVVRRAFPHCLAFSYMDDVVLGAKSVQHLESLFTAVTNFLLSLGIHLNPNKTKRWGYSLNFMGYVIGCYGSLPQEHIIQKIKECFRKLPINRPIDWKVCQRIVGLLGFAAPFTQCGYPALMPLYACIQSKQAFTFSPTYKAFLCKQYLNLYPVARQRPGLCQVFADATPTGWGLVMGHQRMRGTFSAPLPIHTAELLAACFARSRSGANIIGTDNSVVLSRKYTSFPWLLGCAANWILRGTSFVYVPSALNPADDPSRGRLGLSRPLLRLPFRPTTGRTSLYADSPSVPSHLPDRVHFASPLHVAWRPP

On to `Cc1nc2cc(NC(=O)c3ccc(S(=O)(=O)N(C)Cc4ccccc4)cc3)ccc2s1` [CCC-0346, 4-(Benzyl-methyl-sulfamoyl)-N-(2-methyl-benzothiazol-5-yl)-benzamide], for which, on HBV polymerase (endogenous polymerase reaction, compound at 3 μM), the viral polymerase activity entry was “does not inhibit”. The HBV polymerase activity result on HBV polymerase is “did not inhibit”. Further, in the assay on HBV DP-rcDNA, the “reduction of DP-rcDNA” value is “significant reduction”.
With `O=C(CN(c1cc(C(F)(F)F)ccc1Cl)S(=O)(=O)c1ccccc1)NCc1ccncc1` [CCC-0975, 2-[Benzenesulfonyl-(2-chloro-5-trifluoromethyl-phenyl)-amino]-N-pyridin-4-ylmethyl-acetamide], the HBV polymerase activity entry on HBV polymerase (listed as 2-[Benzenesulfonyl-(2-chloro-5-trifluoromethyl-phenyl)-amino]-N-pyridin-4-ylmeth) is “does not inhibit”; on HBV polymerase (listed as 2-[benzenesulfonyl-(2-chloro-5-trifluoromethyl-phenyl)-amino]-N-pyridin-4-ylmeth) it was “did not inhibit”. For the same molecule, the “reduction of putative cccDNA precursor DP-rcDNA” value in the assay with HBV DP-rcDNA (HepDES19 cells, day 12) was “significant reduction”. For the same molecule, the “reduction of DP-rcDNA” value in the assay on HBV DP-rcDNA is given as “significant reduction”.

Values taken from patent US9657013B2, “Inhibitors of hepatitis B virus covalently closed circular DNA formation and their method of use” (priority 2012, dated 2017).
